Values quoted from earlier work in patent US20200115358A1, “ICARIIN AND ICARITIN DERIVATIVES” (H. LEE MOFFITT CANCER CENTER AND RESEARCH INSTITUTE, INC., priority 2016, published 2020).

System: MDSCs

Compound	inflammatory responses associated with MDSCs
COc1ccc(-c2oc3c(CCC(C)(C)O)c(O)cc(O)c3c(=O)c2O)cc1 [ICT]	effectively inhibit
Icariin	effectively inhibit
